From article PMC9457610, “Synthesis of thia-Michael-Type Adducts between Naphthoquinones and N-Acetyl-L-Cysteine and Their Biological Activity” (Molecules, 2022)

What was measured:
[1] = tested on: HeLa, SH-SY5Y, SaOS2, and U2OS; assay: MTT cell viability assay, all malignant cell lines tested (summary); assay type: cell-based, human; conditions: summary over HeLa, 48 h; for IC50: Homo sapiens, read-out: IC50 values against all the malignant cell lines tested
Method: (§1) Molecules 8–12 were tested in vitro using the MTT assay against four cancer cell lines: HeLa, SH-SY5Y, SaOS2, and U2OS. […] Cytotoxic activities were expressed as IC50 values, i.e., the concentration of the substance that reduced cell viability by 50% (Table 2).
(§2) HeLa, SH-SY5Y, SaOS2, U2OS, and HDFa cell lines were purchased from American Type Culture Collection (ATCC; Manassas, VA, USA). HeLa, SaOS2, and U2OS cells were cultured in RPMI 1640 medium (Labtek Eurobio, Milan, Italy), while SH-SY5Y and HDFa cells were cultured in high-glucose DMEM (Labtek Eurobio, Milan, Italy), and both were supplemented with 10% FCS (Euroclone, Milan, Italy) and 2mM L-glutamine (Sigma-Aldrich, Milan, Italy), at 37 °C in a 5% CO2 atmosphere. The compounds were dissolved in DMSO in a 30–50 mM stock solution. In cell treatments, the final DMSO concentration never exceeded 0.1%.
(§3) Cells were seeded at 1.5 × 10^4 cells/well in a 96-well culture plastic plate (Orange Scientific, Braine-l’Alleud, Belgium), and after 24 h of growth, they were exposed to increasing concentrations of compounds (from 0.01 to 200 μM) solubilized in RPMI 1640 medium. After 48 h of treatment, the culture medium was replaced with 0.1 mL of 3-(4,5-dimethylthiazolyl-2)-2,5-diphenyltetrazolium bromide (MTT; Sigma-Aldrich, Milan, Italy) dissolved in PBS at the concentration of 0.2 mg/mL, and samples were incubated for 2 h at 37 °C. The formazan salt crystals formed were dissolved with 0.2 mL of isopropyl alcohol for 20 min. The absorbance at 570 nm was measured using a multi-well plate reader (Tecan, Männedorf, Switzerland), and data were analyzed using Prism GraphPad software and expressed as IC50.

HeLa = assay: MTT cell viability assay, HeLa; assay type: cell-based; conditions: Homo sapiens, 48 h treatment, 0.01 to 200 μM, ± SD, n.a. = not active
Method: as §1, §2, §3

SH-SY5Y = assay: MTT cell viability assay, SH-SY5Y; assay type: cell-based; conditions: Homo sapiens, 48 h treatment, 0.01 to 200 μM, ± SD, n.a. = not active
Method: as §1, §2, §3

SaOS2 = assay: MTT cell viability assay, SaOS2; assay type: cell-based; conditions: Homo sapiens, SAOS-2, 48 h treatment, 0.01 to 200 μM, ± SD, n.a. = not active
Method: as §1, §2, §3

U2OS = assay: MTT cell viability assay, U2OS; assay type: cell-based; conditions: Homo sapiens, 48 h treatment, 0.01 to 200 μM, ± SD, n.a. = not active
Method: as §1, §2, §3

HDFa = assay: MTT cell viability assay, normal cell line HDFa; assay type: cell-based; conditions: Homo sapiens, normal dermal fibroblast, 48 h treatment, ± SD
Method: as §1, §2, §3

HeLa cells [2] = assay: Intracellular ROS level (DCFDA), HeLa; assay type: cell-based, human
Method: (§4) To further explore and establish a direct relationship between 8 or 11 and ROS, DCFH-DA staining was applied to HeLa, U2OS, and SH-SY5Y cells treated for 1 h and 48 h. […] Indeed, in HeLa cells, 8 induced an increase in ROS formation of 1.14 ± 0.042, while in U2OS and SH-SY5Y cells, the increases were 1.30 ± 0.13-fold and 1.51 ± 0.16-fold with respect to control, with p < 0.0001, p < 0.0005, and p < 0.0024, respectively. In the same way, 11 induced increases in ROS formation in HeLa cells of 1.27 ± 0.16, while in U2OS and SH-SY5Y cells, the increases were 1.62 ± 0.11-fold and 1.61 ± 0.14-fold with respect to control, with p < 0.0049, p < 0.0001, and p < 0.0056, respectively. Moreover, it is important to note that both compounds 8 and 11 induced a greater formation of ROS in U2OS and SH-SY5Y cells than in HeLa cells, as shown in Figure 5A.
(§5) Oxidative stress was measured in intact cells using an ROS indicator, 2′,7′-dichlorodihydrofluorescein diacetate (DCFDA; Thermo Fisher Scientific, Waltham, MA, USA). HeLa, U2OS, and SH-SY5Y cells were seeded in 96-well plates at 1.5 × 10^4 cells/well (Optiplate, Perkin Elmer, Milan, Italy), and after 24 h to allow adhesion, HeLa and SH-SY5Y cells were incubated with 5 μM GA 462 or 20 μM SM71, while U2OS were treated with 5 μM 8 or 30 μM 11, dissolved in complete medium for 1 or 48 h at 37 °C in 5% CO2 atmosphere. After this time, cells were washed with PBS and treated with 10 μM DCFDA in culture medium for 30 min. Finally, cells were washed again with PBS and the fluorescence value in each well was measured (λexc = 488 nm; λem = 530 nm) with a plate reader (Tecan, Männedorf, Switzerland). Fluorescence emission was normalized to protein content measured using the Bradford method.

U2OS cells [3] = assay: Intracellular ROS level (DCFDA), U2OS; assay type: cell-based, human; conditions: 5 μM 8 or 30 μM 11; for increase in ROS formation with respect to control: 1 h; for ROS production: 48 h
Method: as §4, §5

SH-SY5Y cells [4] = assay: Intracellular ROS level (DCFDA), SH-SY5Y; assay type: cell-based, human; conditions: for increase in ROS formation with respect to control: 1 h, 5 μM 8 (GA 462) or 20 μM 11 (SM71); for ROS production: 48 h, 5 μM 8 or 20 μM 11
Method: as §4, §5

HeLa cells [5] = assay: Cell-cycle analysis (PI stain, flow cytometry), HeLa; assay type: cell-based, human; conditions: 5 μM
Method: (§6) For this reason, we decided to analyze the effects on proliferation by treating the cells only with 8. Next, we explored the effect of 5 μM 8 on cell-cycle distribution in HeLa, U2OS, and SH-SY5Y cancer cells using PI stain followed by flow cytometry. Cells were exposed to the compound for 24 or 48 h prior to processing and analysis.
(§7) The effects on the HeLa and U2OS cell cycles were studied after 24 or 48 h of treatment with 5 μM 8. Cells were detached with 0.11% trypsin, washed in PBS and centrifuged. The pellet was resuspended in 0.01% Nonidet P-40, 10 μg/mL RNase, 0.1% sodium citrate, and 50 μg/mL PI, for 30 min at room temperature in the dark. Flow cytometric analyses were performed as previously described.

U2OS cells [6] = assay: Cell-cycle analysis (PI stain, flow cytometry), U2OS; assay type: cell-based, human; conditions: 5 μM
Method: as §6, §7

SH-SY5Y cells [7] = assay: Cell-cycle analysis (PI stain, flow cytometry), SH-SY5Y; assay type: cell-based, human; conditions: 5 μM
Method: as §6, §7

[8] = 1 h, 5 μM 8 (GA 462) or 20 μM 11 (SM71)

Row | Structure (SMILES) | IC50 values against all the malignant cell lines tested [1] | melting point | IC50 (HeLa) [nM] | IC50 (SH-SY5Y) [nM] | IC50 (U2OS) [nM] | IC50 [1] [nM] | IC50 (SaOS2) [nM] | IC50 (HDFa) [nM] | increase in ROS formation with respect to control (HeLa cells [2]; [8]) [fold] | increase in ROS formation with respect to control (U2OS cells [3]) [fold] | ROS production (U2OS cells [3]) | increase in ROS formation with respect to control (SH-SY5Y cells [4]) [fold] | ROS production (SH-SY5Y cells [4]) | increase in ROS formation with respect to control (HeLa cells [2]; 48 h, 5 μM 8) [fold] | increase in the number of G0/G1-phase cells with respect to control (HeLa cells [5]; 24 h) [%] | increase in the number of cells in the S phase with respect to control (HeLa cells [5]; 48 h) [%] | increase in S-phase cells with respect to control (U2OS cells [6]; 24 h) [%] | accumulation of cells in the S phase with respect to control (U2OS cells [6]; 48 h) [%] | increase in S-phase cells with respect to control (SH-SY5Y cells [7]; 24 h) [%] | accumulation of cells in the S phase with respect to control (SH-SY5Y cells [7]; 48 h) [%]
1 | CC(=O)N[C@@H](CSC1=C(C)C(=O)c2cccc(O)c2C1=O)C(=O)O [Compound 10, N-acetyl-S-(8-hydroxy-3-methyl-1,4-dioxo-1,4-dihydronaphthalen-2-yl)-L-cysteine] | inactive | > 193 °C (dec.) |  |  |  |  |  |  |  |  |  |  |  |  |  |  |  |  |  | 
2 | CC(=O)N[C@@H](CSC1=CC(=O)c2c(O)cccc2C1=O)C(=O)O [Compound 11, N-acetyl-S-(5-hydroxy-1,4-dioxo-1,4-dihydronaphthalen-2-yl)-L-cysteine] |  | 209.8 to 211.7 °C | 13200 ± 50 | 11400 ± 1 | 30400 ± 5 |  | 25900 ± 50 | 6880 ± 50 | 1.27 ± 0.16 | 1.62 ± 0.11 | no ROS production | 1.61 ± 0.14 | no ROS production |  |  |  |  |  |  | 

Now from value to compound, other results behind:

Row | IC50 values against all the malignant cell lines tested [1] | melting point | IC50 (HeLa) [nM] | IC50 (SH-SY5Y) [nM] | IC50 (U2OS) [nM] | IC50 [1] [nM] | Structure (SMILES) | IC50 (SaOS2) [nM] | IC50 (HDFa) [nM] | increase in ROS formation with respect to control (HeLa cells [2]; [8]) [fold] | increase in ROS formation with respect to control (U2OS cells [3]) [fold] | ROS production (U2OS cells [3]) | increase in ROS formation with respect to control (SH-SY5Y cells [4]) [fold] | ROS production (SH-SY5Y cells [4]) | increase in ROS formation with respect to control (HeLa cells [2]; 48 h, 5 μM 8) [fold] | increase in the number of G0/G1-phase cells with respect to control (HeLa cells [5]; 24 h) [%] | increase in the number of cells in the S phase with respect to control (HeLa cells [5]; 48 h) [%] | increase in S-phase cells with respect to control (U2OS cells [6]; 24 h) [%] | accumulation of cells in the S phase with respect to control (U2OS cells [6]; 48 h) [%] | increase in S-phase cells with respect to control (SH-SY5Y cells [7]; 24 h) [%] | accumulation of cells in the S phase with respect to control (SH-SY5Y cells [7]; 48 h) [%]
3 |  | 238.2 to 239.9 °C | 1040 ± 8 | 630 ± 40 | 1650 ± 30 | 500 to 1810 | CC(=O)N[C@@H](CSC1=CC(=O)c2c(O)ccc(O)c2C1=O)C(=O)O [Compound 12, N-acetyl-S-(5,8-dihydroxy-1,4-dioxo-1,4-dihydronaphtalen-2-yl)-L-cysteine] | 1560 ± 30 | 830 ± 7 |  |  |  |  |  |  |  |  |  |  |  | 
4 |  | 206.9 to 208.3 °C | 500 ± 80 | 960 ± 60 | 510 ± 60 | 500 to 1810 | CC(=O)N[C@@H](CSC1=C(C)C(=O)c2ccccc2C1=O)C(=O)O [Compound 9, N-acetyl-S-(3-methyl-1,4-dioxo-1,4-dihydronaphthalen-2-yl)-L-cysteine] | 590 ± 40 | 3870 ± 10 |  |  |  |  |  |  |  |  |  |  |  | 
5 |  |  | 540 ± 50 | 870 ± 3 | 1810 ± 7 | 500 to 1810 | CC(=O)N[C@@H](CSC1=CC(=O)c2ccccc2C1=O)C(=O)O [Compound 8, N-acetyl-S-(1,4-dioxo-1,4-dihydronaphthalen-2-yl)-L-cysteine] | 1670 ± 10 | 7430 ± 20 | 1.14 ± 0.042 | 1.30 ± 0.13 | no ROS production | 1.51 ± 0.16 | no ROS production | 2.28 ± 0.47 | 1.3 | 1.2 | 1.3 | 1.1 | 1.1 | 1.3
